According to patent US20230295119A1, “SUBSTITUTED PYRIDINES FOR THE TREATMENT OF INFLAMMATORY DISEASES” (GOSSAMER BIO SERVICES, INC., priority 2020, published 2023):

Key:
TYK2 JH2 domain = TYK2 JH2 domain (Homo sapiens (Human), UniProt P29597); experiment: TYK2 JH2 NanoBRET assay; format: binding; conditions: Table 20, read-out: TYK2 IC50
How it was run: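 Tracer displacement measured by BRET ratio (acceptor over donor) in live HEK293T cells transfected with a NanoLuc-tagged TYK2 JH2 construct; cells co-exposed to test compound and 0.5 µM final K10 tracer for 2 h before substrate/extracellular inhibitor addition.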

human JAK2 = human JAK2 (Homo sapiens (Human), UniProt O60674); experiment: JAK2 TR-FRET kinase assay; format: biochemical; conditions: JAK2 0.025 nM
human JAK3 = human JAK3 (Homo sapiens (Human), UniProt P52333); experiment: JAK3 TR-FRET kinase assay; format: biochemical; conditions: JAK3 0.0125 nM
human JAK1 = human JAK1 (Homo sapiens (Human), UniProt P23458); experiment: JAK1 TR-FRET kinase assay; format: biochemical; conditions: TR-FRET, JAK1 2.5 nM
human JAK1, sequence (P23458 whole entry): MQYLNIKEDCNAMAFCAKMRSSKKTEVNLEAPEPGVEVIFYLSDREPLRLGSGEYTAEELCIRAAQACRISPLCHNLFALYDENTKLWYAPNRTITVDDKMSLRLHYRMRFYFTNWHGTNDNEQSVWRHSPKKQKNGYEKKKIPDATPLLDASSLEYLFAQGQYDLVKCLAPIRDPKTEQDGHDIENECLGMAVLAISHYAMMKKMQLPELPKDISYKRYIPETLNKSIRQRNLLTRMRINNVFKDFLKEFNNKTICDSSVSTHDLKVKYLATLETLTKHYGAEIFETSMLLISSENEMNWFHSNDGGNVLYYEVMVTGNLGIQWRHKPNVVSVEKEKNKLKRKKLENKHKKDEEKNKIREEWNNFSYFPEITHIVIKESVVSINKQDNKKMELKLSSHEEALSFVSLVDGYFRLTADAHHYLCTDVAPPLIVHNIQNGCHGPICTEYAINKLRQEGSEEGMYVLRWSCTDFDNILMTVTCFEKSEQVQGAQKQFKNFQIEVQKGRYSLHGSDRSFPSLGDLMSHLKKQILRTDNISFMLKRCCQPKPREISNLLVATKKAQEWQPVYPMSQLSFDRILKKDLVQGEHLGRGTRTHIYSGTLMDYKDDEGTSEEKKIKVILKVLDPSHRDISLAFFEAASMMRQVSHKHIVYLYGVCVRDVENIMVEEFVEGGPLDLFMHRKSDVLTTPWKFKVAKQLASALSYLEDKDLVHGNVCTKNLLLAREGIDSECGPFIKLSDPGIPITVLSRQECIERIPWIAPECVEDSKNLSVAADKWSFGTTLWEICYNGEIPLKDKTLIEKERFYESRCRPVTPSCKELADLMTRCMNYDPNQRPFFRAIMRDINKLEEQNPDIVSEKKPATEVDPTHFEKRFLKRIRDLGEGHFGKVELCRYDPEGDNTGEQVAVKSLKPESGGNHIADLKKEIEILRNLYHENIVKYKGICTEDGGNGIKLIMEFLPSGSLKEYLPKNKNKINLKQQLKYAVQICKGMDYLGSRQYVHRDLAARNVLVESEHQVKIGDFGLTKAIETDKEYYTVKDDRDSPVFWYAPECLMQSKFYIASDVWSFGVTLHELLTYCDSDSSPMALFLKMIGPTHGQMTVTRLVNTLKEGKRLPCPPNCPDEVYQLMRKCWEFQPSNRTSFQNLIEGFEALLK

human JAK3, sequence (P52333 whole entry): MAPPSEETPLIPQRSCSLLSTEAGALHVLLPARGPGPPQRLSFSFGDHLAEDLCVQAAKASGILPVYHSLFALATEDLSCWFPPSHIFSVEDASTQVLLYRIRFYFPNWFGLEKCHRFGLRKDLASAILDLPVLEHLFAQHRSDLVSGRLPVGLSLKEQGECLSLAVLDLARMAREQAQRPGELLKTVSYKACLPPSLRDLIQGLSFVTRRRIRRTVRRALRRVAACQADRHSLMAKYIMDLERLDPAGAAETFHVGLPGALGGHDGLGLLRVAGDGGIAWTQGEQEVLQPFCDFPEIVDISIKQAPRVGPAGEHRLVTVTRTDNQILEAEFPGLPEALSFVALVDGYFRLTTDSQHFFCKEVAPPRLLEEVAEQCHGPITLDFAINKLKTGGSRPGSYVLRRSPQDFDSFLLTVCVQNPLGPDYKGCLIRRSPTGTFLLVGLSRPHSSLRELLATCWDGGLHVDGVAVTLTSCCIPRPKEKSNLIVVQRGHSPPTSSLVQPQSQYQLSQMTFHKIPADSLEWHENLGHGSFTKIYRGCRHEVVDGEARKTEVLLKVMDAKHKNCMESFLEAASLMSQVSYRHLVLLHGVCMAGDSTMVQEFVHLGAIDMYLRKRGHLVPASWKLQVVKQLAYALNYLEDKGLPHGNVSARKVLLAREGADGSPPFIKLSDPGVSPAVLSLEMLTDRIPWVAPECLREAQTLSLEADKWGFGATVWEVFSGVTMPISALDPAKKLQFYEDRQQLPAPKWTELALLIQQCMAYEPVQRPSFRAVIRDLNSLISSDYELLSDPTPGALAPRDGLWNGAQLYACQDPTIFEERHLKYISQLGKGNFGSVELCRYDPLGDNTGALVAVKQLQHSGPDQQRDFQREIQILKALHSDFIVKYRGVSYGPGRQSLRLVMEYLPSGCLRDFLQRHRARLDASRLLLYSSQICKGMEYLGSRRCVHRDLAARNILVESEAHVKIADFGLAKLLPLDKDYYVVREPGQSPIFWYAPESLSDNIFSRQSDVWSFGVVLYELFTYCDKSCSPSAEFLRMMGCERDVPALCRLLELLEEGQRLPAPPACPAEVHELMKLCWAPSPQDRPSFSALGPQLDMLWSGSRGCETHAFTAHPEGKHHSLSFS
human JAK2, sequence (O60674 whole entry): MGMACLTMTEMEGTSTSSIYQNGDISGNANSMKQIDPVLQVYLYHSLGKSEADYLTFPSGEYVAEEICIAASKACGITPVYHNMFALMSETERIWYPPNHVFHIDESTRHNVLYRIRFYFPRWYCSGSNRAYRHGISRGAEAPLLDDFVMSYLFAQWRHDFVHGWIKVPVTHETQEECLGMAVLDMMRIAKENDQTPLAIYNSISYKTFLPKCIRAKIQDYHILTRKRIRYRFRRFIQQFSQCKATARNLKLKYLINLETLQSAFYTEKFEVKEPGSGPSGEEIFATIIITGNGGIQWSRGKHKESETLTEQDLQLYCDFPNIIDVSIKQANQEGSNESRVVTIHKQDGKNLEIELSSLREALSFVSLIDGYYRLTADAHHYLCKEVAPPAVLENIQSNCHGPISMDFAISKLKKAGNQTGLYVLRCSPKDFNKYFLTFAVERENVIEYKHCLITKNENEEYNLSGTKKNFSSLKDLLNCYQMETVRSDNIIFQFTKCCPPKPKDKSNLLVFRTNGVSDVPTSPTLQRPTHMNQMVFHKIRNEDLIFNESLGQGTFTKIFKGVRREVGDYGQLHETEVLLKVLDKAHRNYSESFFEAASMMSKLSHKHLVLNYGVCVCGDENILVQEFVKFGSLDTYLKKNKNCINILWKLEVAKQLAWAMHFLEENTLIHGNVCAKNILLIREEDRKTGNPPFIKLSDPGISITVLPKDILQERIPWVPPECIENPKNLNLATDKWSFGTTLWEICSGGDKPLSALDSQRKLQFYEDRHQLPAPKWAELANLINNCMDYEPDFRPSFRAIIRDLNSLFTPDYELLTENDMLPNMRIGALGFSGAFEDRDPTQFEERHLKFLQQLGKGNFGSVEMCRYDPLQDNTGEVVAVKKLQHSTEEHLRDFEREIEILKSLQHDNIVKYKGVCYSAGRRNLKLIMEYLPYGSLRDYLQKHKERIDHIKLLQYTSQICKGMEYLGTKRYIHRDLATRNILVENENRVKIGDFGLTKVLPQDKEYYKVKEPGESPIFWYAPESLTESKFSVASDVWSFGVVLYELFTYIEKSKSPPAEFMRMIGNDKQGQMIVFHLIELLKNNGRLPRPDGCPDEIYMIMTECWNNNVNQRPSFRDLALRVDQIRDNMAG
TYK2 JH2 domain, sequence (P29597 589-875): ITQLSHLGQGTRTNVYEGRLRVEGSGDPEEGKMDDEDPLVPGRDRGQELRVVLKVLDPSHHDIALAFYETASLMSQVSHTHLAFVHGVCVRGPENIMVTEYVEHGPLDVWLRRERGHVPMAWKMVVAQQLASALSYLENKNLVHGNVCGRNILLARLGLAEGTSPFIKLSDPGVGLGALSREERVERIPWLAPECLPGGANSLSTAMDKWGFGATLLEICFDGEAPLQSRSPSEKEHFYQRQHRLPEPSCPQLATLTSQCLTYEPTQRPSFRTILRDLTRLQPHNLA

| IC50 (TYK2 JH2 domain) [nM] | IC50 (human JAK2) [nM] | IC50 (human JAK3) [nM] | IC50 (human JAK1) [nM] | Compound |
| --- | --- | --- | --- | --- |
| 5 to 50 | ≥ 500 | ≥ 500 | ≥ 500 | CCC(=O)c1cnc(Nc2cnc(OCCO)cn2)cc1Nc1cccc(-c2ncn(C)n2)c1OC [Compound 18P] |
| < 5 | ≥ 500 | ≥ 500 | ≥ 500 | CCC(=O)c1cnc(Nc2cnc(OCCN3CCCC3)cn2)cc1Nc1cccc(-c2ncn(C)n2)c1OC [Compound 18VV] |
| 5 to 50 | ≥ 500 | ≥ 500 | ≥ 500 | CCC(=O)c1cnc(Nc2cnc(O[C@H]3CN(C)CC3(F)F)cn2)cc1Nc1cccc(-c2ncn(C)n2)c1OC [Compound 18RRR] |
| ≥ 500 | 50 to 500 | 50 to 500 | ≥ 500 | CCC(=O)c1cnc(Nc2ccc(OC(C)(C)C(=O)O)c(C)n2)cc1Nc1cccc(-c2ncn(C)n2)c1OC [Compound 18L] |
| 50 to 500 | ≥ 500 | ≥ 500 | ≥ 500 | CCC(=O)c1cnc(Nc2ncc(OCC3COC3)cc2F)cc1Nc1cccc(-c2ncn(C)n2)c1OC [Compound 18CCCC] |
| < 5 | 50 to 500 | 50 to 500 | ≥ 500 | CCC(=O)c1cnc(Nc2ccc(OCC(C)(C)O)cn2)cc1Nc1cccc(-c2ncn(C)n2)c1OC [Compound 18E] |
| 50 to 500 | ≥ 500 | ≥ 500 | ≥ 500 | CCC(=O)c1cnc(Nc2nc(CN(C)C)ccc2F)cc1Nc1cccc(-c2ncn(C)n2)c1OC [Compound 9UUUU] |
| 50 to 500 | ≥ 500 | ≥ 500 | ≥ 500 | CCC(=O)c1cnc(NC(=O)C2CC2)cc1Nc1cc(F)cc(-c2ncn(CCO)n2)c1OC [Compound 25F] |
| 5 to 50 | ≥ 500 | ≥ 500 | ≥ 500 | CCC(=O)c1cnc(Nc2ccc(-c3ncn(C)n3)cn2)cc1Nc1nccc(-c2ncn(C)n2)c1OC [Compound 15M] |
| 5 to 50 | ≥ 500 | ≥ 500 | ≥ 500 | CCC(=O)c1cnc(Nc2ccc(S(C)(=O)=O)cn2)cc1Nc1cccc(COC)c1OC [Compound 13R] |
| 5 to 50 | ≥ 500 | ≥ 500 | ≥ 500 | CCC(=O)c1cnc(Nc2cc(CNC)ncn2)cc1Nc1cccc(-c2ncn(C)n2)c1OC [Compound 9MMMM] |
| 5 to 50 | ≥ 500 | ≥ 500 | ≥ 500 | CCC(=O)c1cnc(Nc2cnc(C3(NC)CC3)cn2)cc1Nc1cccc(-c2ncn(C)n2)c1OC [Compound 9ZZZ] |
| < 5 | ≥ 500 | ≥ 500 | ≥ 500 | [2H]C([2H])([2H])CC(=O)c1cnc(Nc2ccn(-c3ccccc3)c(=O)n2)cc1Nc1cccc(-c2ncn(C)n2)c1OC [Compound 15T] |
| 5 to 50 | ≥ 500 | 50 to 500 | ≥ 500 | CCC(=O)c1cnc(Nc2ccc(CN3CC(C#N)C3)cn2)cc1Nc1cccc(-c2ncn(C)n2)c1OC [Compound 9FF] |
| 5 to 50 | ≥ 500 | ≥ 500 | ≥ 500 | CCC(=O)c1cnc(Nc2cc(C(F)(F)F)c(CN(C)C)cn2)cc1Nc1cccc(-c2ncn(C)n2)c1OC [Compound 9SSSS] |
| < 5 | ≥ 500 | ≥ 500 | ≥ 500 | CCC(=O)c1cnc(Nc2ccc([C@H](C)N(C)C)cn2)cc1Nc1cccc(-c2ncn(C)n2)c1OC [Compound 9K] |
| ≥ 500 | ≥ 500 | ≥ 500 | ≥ 500 | CCC(=O)c1cnc(NC(=O)[C@@H]2C[C@@H]2C(N)=O)cc1Nc1cccc(-c2ncn(C)n2)c1OC [Compound 22G] |
| 5 to 50 | ≥ 500 | ≥ 500 | ≥ 500 | CCC(=O)c1cnc(Nc2cccc(CN3CCCCC3)n2)cc1Nc1cccc(-c2ncn(C)n2)c1OC [Compound 9GGGG] |
| < 5 | 50 to 500 | 50 to 500 | ≥ 500 | CCC(=O)c1cnc(Nc2cc(CN3CCCC3)n(C)n2)cc1Nc1cccc(-c2ncn(C)n2)c1OC [Compound 21G] |
| 5 to 50 | ≥ 500 | ≥ 500 | ≥ 500 | CCC(=O)c1cnc(Nc2nccc(CN(C)C)c2F)cc1Nc1cccc(-c2ncn(C)n2)c1OC [Compound 9TTTT] |
| 5 to 50 | ≥ 500 | ≥ 500 | ≥ 500 | [2H]C([2H])([2H])N1CC[C@@H](Oc2cnc(Nc3cc(Nc4cccc(-c5ncn(C)n5)c4OC)c(C(=O)CC)cn3)cn2)C1 [Compound 18NNN] |
| 5 to 50 | ≥ 500 | ≥ 500 | ≥ 500 | COc1c(Nc2cc(Nc3ccc(OC[C@@H](O)CO)cn3)ncc2C(=O)C2CC2)cccc1-c1ncn(C)n1 [Compound 18I] |

| IC50 (TYK2 JH2 domain) [nM] | IC50 (human JAK2) [nM] | IC50 (human JAK3) [nM] | IC50 (human JAK1) [nM] | Compound |
| --- | --- | --- | --- | --- |
| < 5 | ≥ 500 | ≥ 500 | ≥ 500 | CCC(=O)c1cnc(Nc2ccc(O[C@H]3CN(C)C[C@@H]3F)cn2)cc1Nc1cccc(-c2ncn(C)n2)c1OC [Compound 18UUU] |
| 5 to 50 | ≥ 500 | ≥ 500 | ≥ 500 | CCC(=O)c1cnc(Nc2ccc([C@@H](C)N3CC(O)C3)cn2)cc1Nc1cccc(-c2ncn(C)n2)c1OC [Compound 9HH] |
| < 5 | ≥ 500 | ≥ 500 | ≥ 500 | CCC(=O)c1cnc(Nc2cc(C(N)=O)ccn2)cc1Nc1cccc(-c2ncn(C)n2)c1OC [Compound 8F] |
| < 5 | ≥ 500 | ≥ 500 | ≥ 500 | CCC(=O)c1cnc(Nc2cc(C(=O)N(C)C)ccn2)cc1Nc1cccc(-c2ncn(C)n2)c1OC [Compound 8H] |
| 5 to 50 | ≥ 500 | ≥ 500 | ≥ 500 | CCC(=O)c1cnc(Nc2ccc(-n3nc(C)ccc3=O)cn2)cc1Nc1cccc(-c2ncn(C)n2)c1OC [Compound 15Z] |
| < 5 | ≥ 500 | ≥ 500 | ≥ 500 | CCC(=O)c1cnc(Nc2ccc([C@H](C)N3CC[C@@H](O)C3)cn2)cc1Nc1cccc(-c2ncn(C)n2)c1OC [Compound 9NN] |
| 50 to 500 | ≥ 500 | ≥ 500 | ≥ 500 | CCC(=O)c1cnc(NC(=O)CCN2CCCC2)cc1Nc1cccc(-c2ncn(C)n2)c1OC [Compound 23D] |
| 50 to 500 | ≥ 500 | ≥ 500 | ≥ 500 | CCC(=O)c1cnc(Nc2cnc(C(F)(F)CNC)cn2)cc1Nc1cccc(-c2ncn(C)n2)c1OC [Compound 19B] |
| 5 to 50 | ≥ 500 | ≥ 500 | ≥ 500 | CCC(=O)c1cnc(Nc2cnc(O[C@H]3CN(C)C[C@H]3F)cn2)cc1Nc1cccc(-c2ncn(C)n2)c1OC [Compound 18BBB] |
| 5 to 50 | ≥ 500 | ≥ 500 | ≥ 500 | CCC(=O)c1cnc(Nc2ccc(CCNC)cn2)cc1Nc1cccc(-c2ncn(C)n2)c1OC [Compound 11B] |
| < 5 | ≥ 500 | ≥ 500 | ≥ 500 | CCC(=O)c1cnc(Nc2cnc(CN3CCN(C)CC3)cn2)cc1Nc1cccc(-c2ncn(C)n2)c1OC [Compound 9BBBB] |
| < 5 | ≥ 500 | ≥ 500 | ≥ 500 | CCC(=O)c1cnc(Nc2ccc(OCCCO)nn2)cc1Nc1cccc(-c2ncn(C)n2)c1OC [Compound 18N] |
| 5 to 50 | ≥ 500 | ≥ 500 | ≥ 500 | CCC(=O)c1cnc(Nc2cnc(O[C@@H]3CCN(CC(F)(F)F)C3)cn2)cc1Nc1cccc(-c2ncn(C)n2)c1OC [Compound 18LLL] |
| < 5 | ≥ 500 | ≥ 500 | ≥ 500 | CCC(=O)c1cnc(Nc2ccc(CN3CC4(CCO4)C3)cn2)cc1Nc1cccc(-c2ncn(C)n2)c1OC [Compound 9ZZ] |
| < 5 | 50 to 500 | 50 to 500 | ≥ 500 | CCC(=O)c1cnc(Nc2ccc([C@@H](C)N3CC4(COC4)C3)cn2)cc1Nc1cccc(-c2ncn(C)n2)c1OC [Compound 9BBB] |
| 5 to 50 | ≥ 500 | ≥ 500 | ≥ 500 | CCC(=O)c1cnc(Nc2ccc(C(C)(C)N(C)C)nn2)cc1Nc1cccc(-c2ncn(C)n2)c1OC [Compound 9NNN] |
| < 5 | ≥ 500 | ≥ 500 | ≥ 500 | CCC(=O)c1cnc(Nc2ccc(CN(C)C3COC3)cn2)cc1Nc1cccc(-c2ncn(C)n2)c1OC [Compound 9DDD] |
| < 5 | 50 to 500 | 50 to 500 | ≥ 500 | CCC(=O)c1cnc(Nc2ccc(CN3CCS(=O)(=O)CC3)cn2)cc1Nc1cccc(-c2ncn(C)n2)c1OC [Compound 9VV] |
| < 5 | 50 to 500 | 50 to 500 | ≥ 500 | CCC(=O)c1cnc(Nc2ccc(-n3cnccc3=O)cn2)cc1Nc1cccc(-c2ncn(C)n2)c1OC [Compound 15Y] |
| < 5 | ≥ 500 | ≥ 500 | ≥ 500 | CCC(=O)c1cnc(Nc2ccc(C(C)N)cn2)cc1Nc1cccc(-c2ncn(C)n2)c1OC (centres unmarked) [Compound 9G] |
| 5 to 50 | ≥ 500 | 50 to 500 | ≥ 500 | CCC(=O)c1cnc(Nc2ccc(O[C@H]3CN(C)C[C@@H]3O)cn2)cc1Nc1cccc(-c2ncn(C)n2)c1OC [Compound 18S] |
| 5 to 50 | ≥ 500 | ≥ 500 | ≥ 500 | CCC(=O)c1cnc(Nc2ccc(CNC)nn2)cc1Nc1cccc(-c2ncn(C)n2)c1OC [Compound 9GGG] |
